PubChem BioAssay AID1963443 (Molecular Pharmacology Branch, DTP, NCI, 2024)

Tested on: MDA-MB-231 complex spheroids, growth inhibition
Assay: Anticancer human tumor MDA-MB-231 cell line growth inhibition [Asc];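 also: spheroids exposed to compounds for 7 days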
Conditions: for IC50: curve of first compound; for viability, T/C: stronger effect = lower value
Method in brief: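 Tumor cells were grown as multicellular spheroids with stromal HUVEC and mesenchymal stem cells and treated singly or in combination. Concentrations fell in half-log steps from the clinical Cmax, or from 10 microM where none was known.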

[1] = second compound 0.03 µM, first compound 0.0316 µM
[2] = second compound 0.03 µM, first compound 0.1 µM
[3] = second compound 0.03 µM, first compound 0.316 µM
[4] = second compound 0.03 µM, first compound 1 µM
[5] = second compound 0.03 µM, first compound 3.16 µM
[6] = second compound 0.03 µM, first compound 10 µM
[7] = second compound 0.0949 µM, first compound 0.0316 µM
[8] = second compound 0.0949 µM, first compound 0.1 µM
[9] = second compound 0.0949 µM, first compound 0.316 µM
[10] = second compound 0.0949 µM, first compound 1 µM
[11] = second compound 0.0949 µM, first compound 3.16 µM
[12] = second compound 0.0949 µM, first compound 10 µM
[13] = second compound 0.3 µM, first compound 0.0316 µM
[14] = second compound 0.3 µM, first compound 0.1 µM
[15] = second compound 0.3 µM, first compound 0.316 µM
[16] = second compound 0.3 µM, first compound 1 µM
[17] = second compound 0.3 µM, first compound 3.16 µM
[18] = second compound 0.3 µM, first compound 10 µM
[19] = second compound 0.949 µM, first compound 0.0316 µM
[20] = second compound 0.949 µM, first compound 0.1 µM
[21] = second compound 0.949 µM, first compound 0.316 µM
[22] = second compound 0.949 µM, first compound 1 µM
[23] = second compound 0.949 µM, first compound 3.16 µM
[24] = second compound 0.949 µM, first compound 10 µM
[25] = second compound 3 µM, first compound 0.0316 µM
[26] = second compound 3 µM, first compound 0.1 µM
[27] = second compound 3 µM, first compound 0.316 µM
[28] = second compound 3 µM, first compound 1 µM
[29] = second compound 3 µM, first compound 3.16 µM
[30] = second compound 3 µM, first compound 10 µM
[31] = second compound 0.03 µM, first compound 0.00316 µM
[32] = second compound 0.03 µM, first compound 0.01 µM
[33] = second compound 0.0949 µM, first compound 0.00316 µM
[34] = second compound 0.0949 µM, first compound 0.01 µM
[35] = second compound 0.3 µM, first compound 0.00316 µM
[36] = second compound 0.3 µM, first compound 0.01 µM
[37] = second compound 0.949 µM, first compound 0.00316 µM
[38] = second compound 0.949 µM, first compound 0.01 µM
[39] = second compound 3 µM, first compound 0.00316 µM
[40] = second compound 3 µM, first compound 0.01 µM

Compound	IC50 (second compound 0.03 µM) [µM]	IC50 (second compound 0.0949 µM) [µM]	IC50 (second compound 0.3 µM) [µM]	IC50 (second compound 0.949 µM) [µM]	IC50 (second compound 3 µM) [µM]	viability, T/C [1] [%]	viability, T/C [2] [%]	viability, T/C [3] [%]	viability, T/C [4] [%]	viability, T/C [7] [%]	viability, T/C [8] [%]	viability, T/C [9] [%]	viability, T/C [10] [%]	viability, T/C [13] [%]	viability, T/C [14] [%]	viability, T/C [15] [%]	viability, T/C [16] [%]	viability, T/C [19] [%]	viability, T/C [20] [%]	viability, T/C [21] [%]	other results
C#Cc1c(F)ccc2cc(O)cc(-c3ncc4c(N5CC6CCC(C5)N6)nc(OCC56CCCN5CC(F)C6)nc4c3F)c12 (stereo not given) + CCN1C(C(=O)NC23CCC(C(=O)O)(CC2)CC3)C(c2cccc(Cl)c2F)C2(C(=O)Nc3cc(Cl)ccc32)C12CCCCC2	> 10	8.44	> 10	> 10	0.898	96.8	96.5	92.8	74.9	108	98.2	94.7	70.2	106	107	98.8	72.5	108	106	103	viability, T/C [5]: 63.8%; viability, T/C [6]: 55.1%; viability, T/C [11]: 59.3%; viability, T/C [12]: 48.1%; viability, T/C [17]: 59.3%; viability, T/C [18]: 48.5%; viability, T/C [22]: 66.2%; viability, T/C [23]: 61.5%; viability, T/C [24]: 45.8%; viability, T/C [25]: 96.7%; viability, T/C [26]: 90.5%; viability, T/C [27]: 68.8%; viability, T/C [28]: 47.4%; viability, T/C [29]: 43.5%; viability, T/C [30]: 36.4%
C=C(F)C(=O)N1CCN(c2nc(OCC3CCCN3C)nc3c2CCN(c2cccc4cccc(Cl)c24)C3)CC1CC#N (stereo not given) + CCN1C(C(=O)NC23CCC(C(=O)O)(CC2)CC3)C(c2cccc(Cl)c2F)C2(C(=O)Nc3cc(Cl)ccc32)C12CCCCC2	3.31	3.22	3.09	3.67	2.37	102	101	88.1	90.2	100	108	97.9	97.1	112	107	110	105	112	116	114	viability, T/C [5]: 51.2%; viability, T/C [6]: 0.47%; viability, T/C [11]: 50.7%; viability, T/C [12]: 0.33%; viability, T/C [17]: 48.9%; viability, T/C [18]: 0.55%; viability, T/C [22]: 107%; viability, T/C [23]: 57.3%; viability, T/C [24]: 1.4%; viability, T/C [25]: 94.3%; viability, T/C [26]: 99.5%; viability, T/C [27]: 97.6%; viability, T/C [28]: 86.9%; viability, T/C [29]: 37.7%; viability, T/C [30]: 0.24%
C=CC(=O)N1CCN(c2nc(=O)n(-c3c(C)ccnc3C(C)C)c3nc(-c4c(O)cccc4F)c(F)cc23)C(C)C1 (stereo not given) + CCN1C(C(=O)NC23CCC(C(=O)O)(CC2)CC3)C(c2cccc(Cl)c2F)C2(C(=O)Nc3cc(Cl)ccc32)C12CCCCC2	> 10	> 10	> 10	> 10	> 10	97.4	97.9	103	104	108	107	112	109	101	103	110	118	113	113	120	viability, T/C [5]: 102%; viability, T/C [6]: 106%; viability, T/C [11]: 116%; viability, T/C [12]: 120%; viability, T/C [17]: 121%; viability, T/C [18]: 108%; viability, T/C [22]: 118%; viability, T/C [23]: 129%; viability, T/C [24]: 121%; viability, T/C [25]: 96%; viability, T/C [26]: 107%; viability, T/C [27]: 109%; viability, T/C [28]: 114%; viability, T/C [29]: 115%; viability, T/C [30]: 112%
CNC(C)C(=O)NC1CN(S(=O)(=O)c2cccc(S(=O)(=O)N3CCC4CCC(C(=O)NC(c5ccccc5)c5ccccc5)N4C(=O)C(NC(=O)C(C)NC)C3)c2)CCC2CCC(C(=O)NC(c3ccccc3)c3ccccc3)N2C1=O (stereo not given) + CCN1C(C(=O)NC23CCC(C(=O)O)(CC2)CC3)C(c2cccc(Cl)c2F)C2(C(=O)Nc3cc(Cl)ccc32)C12CCCCC2	< 0.00316	< 0.00316	< 0.00316	< 0.00316	< 0.00316	1.57	1.22	1.14	0.97	1.66	1.78	1.27	0.74	2.08	2.17	0.84	1.46	2.37	0.77	0.84	viability, T/C [31]: 6.71%; viability, T/C [32]: 1.67%; viability, T/C [33]: 5.03%; viability, T/C [34]: 1.98%; viability, T/C [35]: 5.55%; viability, T/C [36]: 3.61%; viability, T/C [37]: 3.82%; viability, T/C [38]: 2.39%; viability, T/C [22]: 0.96%; viability, T/C [39]: 2.23%; viability, T/C [40]: 1%; viability, T/C [25]: 1.14%; viability, T/C [26]: 0.61%; viability, T/C [27]: 0.68%; viability, T/C [28]: 0.75%
COc1c(OCCCN2CCOCC2)ccc2c3n(c(=NC(=O)c4cnc(N)nc4)nc12)CCN3 + CCN1C(C(=O)NC23CCC(C(=O)O)(CC2)CC3)C(c2cccc(Cl)c2F)C2(C(=O)Nc3cc(Cl)ccc32)C12CCCCC2	0.0814	0.0793	0.0869	0.0908	0.0314	61.5	49.7	34.6	33.8	63.4	47.8	34.3	32.3	65.2	49.9	34.7	33.5	66.4	49	37	viability, T/C [31]: 87.7%; viability, T/C [32]: 81.5%; viability, T/C [33]: 102%; viability, T/C [34]: 78.7%; viability, T/C [35]: 99.3%; viability, T/C [36]: 88.2%; viability, T/C [37]: 100%; viability, T/C [38]: 85.9%; viability, T/C [22]: 34.1%; viability, T/C [39]: 83.3%; viability, T/C [40]: 67.6%; viability, T/C [25]: 50.1%; viability, T/C [26]: 39.3%; viability, T/C [27]: 31.2%; viability, T/C [28]: 34.1%
